Experimental data published in PMC11017246, “Discovery of GLPG2737, a Potent Type 2 Corrector of CFTR for the Treatment of Cystic Fibrosis in Combination with a Potentiator and a Type 1 Co-corrector” (Journal of Medicinal Chemistry, 2024).
pEC50: −log10 of the molar value.

Experiments:
[1] = Hepatocyte stability, rat; format: in vitro ADME; details: read-out: Hep CLint,u rat (converted)
Description: (§1) The hepatocyte stability assay was performed by incubation of test compound at 1 μM, 0.03% DMSO in modified Krebs–Henseleit buffer with suspension of pooled cryopreserved hepatocytes (BioIVT, Hicksville, NY, USA) from mouse, rat, dog, or human (BioIVT, Hicksville, NY, USA) at 0.5 million viable hepatocytes/mL. Before adding the hepatocytes (time zero) and after 10, 20, 45, 90, 120, and 180 min of incubation (n = 2) at 37 °C while gently shaking, the reaction was stopped and proteins were precipitated with an excess of acetonitrile containing an internal standard. The samples were mixed, centrifuged, and filtered, and the supernatant was analyzed by liquid chromatography–mass spectrometry/mass spectrometry (LC–MS/MS). The instrument responses (peak areas/IS peak areas) were referenced to the zero-time point samples (considered as 100%) in order to determine the percentage of compound remaining.

[2] = Liver microsomal stability, rat; format: in vitro ADME; details: liver microsomes; rat microsomes; calculated from measured fumic; read-out: Mic CLint,u rat (converted)
Description: (§2) The microsomal stability assay was performed by incubation of test compound at 1 μM, 0.2% DMSO in phosphate buffer with microsomes (0.5 mg/mL) from mouse, rat, dog, or human (Xeno-Tech, Kansas City, KS, USA), and cofactors with final concentrations of 0.6 U/mL glucose-6- phosphate dehydrogenase, 3.3 mM MgCl2, 3.3 mM glucose-6-phosphate, and 1.3 mM nicotinamide adenine dinucleotide phosphate (NADP)+. Before addition of the microsomes (time zero) and after 30 min of incubation at 37 °C with shaking, the reaction was stopped, and proteins were precipitated with an excess of acetonitrile containing an internal standard. The samples were mixed, centrifuged, and filtered, and the supernatant was analyzed by liquid chromatography–mass spectrometry/mass spectrometry (LC–MS/MS). The instrument responses (peak areas/IS peak areas) were referenced to the zero-time point samples (considered as 100%) to determine the percentage of compound remaining. In vitro unbound intrinsic clearance (CLint,u) was calculated from the half-life using the following equations: [drawing 1] [drawing 2] To take into account nonspecific binding, scaled CLint values were corrected with the fraction unbound in microsomes (fu, mic). [drawing 3]
(§3) Equilibrium dialysis is a technique used to measure microsomal binding. Briefly, the assay was performed in a 96-well Teflon dialysis unit (Dialysis Device), where each well consists of two chambers separated by a dialysis membrane (membrane strips, MW cutoff 12–14 kDa, HTDialysis). Inactivated liver microsomes (pooled human liver microsomes, Xenotech, protein concentration of 0.5 mg/mL) spiked with a compound (1 μM final concentration, 0.5% DMSO) were added to one chamber and buffer solution (50 mM PBS Buffer) was added to the other side of the well. Each compound was analyzed in duplicate for 4 h at 37 °C. At the end of incubation, both chambers were sampled and analyzed by LC-MS/MS. The unbound microsomal fraction (fu, mic) was calculated as the concentration in buffer divided by the total concentration in the microsomal side. Positive controls included in this assay are terfenadine and verapamil.

[3] = Liver microsomal stability, human; format: in vitro ADME; details: liver microsomes; human microsomes; calculated from measured fumic; read-out: Mic CLint,u human (converted)
Description: as §2, §3

[4] = target: T1, ΔF508 CFTR (Homo sapiens, UniProt P13569, DEL508-508); test: CSE-HRP: cell surface expression horseradish peroxidase assay in CFBE41o- cells; format: cell-based; details: no additional corrector; for Emax: CFBE41o-, relative to lumacaftor or 5 (3 μM) positive control, read-out: CSE-HRP % max activation; for pEC50: 24 h incubation, 33 °C, geometric mean, read-out: CSE-HRP EC50
T1 construct: host or cells: CFBE41o- TetON cells, expression induced with doxycycline
Description: A CFBE41o– cell line stably expressing ΔF508 CFTR harboring an HRP-tag in the fourth extracellular loop was obtained from Professor Gergely Lukacs (Department of Physiology, McGill University, Montreal, QC, Canada).[25] Cells were grown in Eagle’s minimal essential medium (Life Technologies) supplemented with 10% FBS, 1% L-glutamine (Life Technologies), 10 mM HEPES (Life Technologies), 200 μg/mL Geneticin (Life Technologies), and 3 μg/mL puromycin (Sigma) in culture flasks coated with 0.01% bovine serum albumin (BSA) (Sigma), 30 μg/mL Purecol (Nutacon), and 0.001% human fibronectin (Sigma).
CFBE41o– TetON cells expressing HRP tagged ΔF508-CFTR were seeded in white 384-well plates (Greiner) at a density of 2000 cells per well. Medium containing 500 ng/mL doxycycline was used to induce expression of ΔF508-CFTR-HRP. After 3 days, cells were treated with corrector or potentiator compounds and transferred to an incubator at 33 °C. On day 4, cells were washed five times with PBS containing Ca^2+ and Mg^2+ using a Bio-Tek plate washer and incubated with a chemiluminescent HRP substrate (SuperSignal West Pico Chemiluminescent Substrate, Thermo Scientific) for 15 min. Chemiluminescence was measured using an Envision plate reader (PerkinElmer). Dose response data was fitted using a 4 parameter hill function of the form Response = neg control + (pos control – neg control)/(1 + 10^(log EC50-concentration)/HillSlope) to determine EC50 values. Percentage efficacy was calculated using the following formula: (max response – neg control)/(C1 response – neg control).

[5] = Hepatocyte stability, human; format: in vitro ADME; details: human hepatocytes; read-out: Hep CLint,u human
Description: as §1

[6] = pooled cryopreserved hepatocytes in suspension

T1 sequence (P13569 with tags, fused parts or gaps DEL508-508): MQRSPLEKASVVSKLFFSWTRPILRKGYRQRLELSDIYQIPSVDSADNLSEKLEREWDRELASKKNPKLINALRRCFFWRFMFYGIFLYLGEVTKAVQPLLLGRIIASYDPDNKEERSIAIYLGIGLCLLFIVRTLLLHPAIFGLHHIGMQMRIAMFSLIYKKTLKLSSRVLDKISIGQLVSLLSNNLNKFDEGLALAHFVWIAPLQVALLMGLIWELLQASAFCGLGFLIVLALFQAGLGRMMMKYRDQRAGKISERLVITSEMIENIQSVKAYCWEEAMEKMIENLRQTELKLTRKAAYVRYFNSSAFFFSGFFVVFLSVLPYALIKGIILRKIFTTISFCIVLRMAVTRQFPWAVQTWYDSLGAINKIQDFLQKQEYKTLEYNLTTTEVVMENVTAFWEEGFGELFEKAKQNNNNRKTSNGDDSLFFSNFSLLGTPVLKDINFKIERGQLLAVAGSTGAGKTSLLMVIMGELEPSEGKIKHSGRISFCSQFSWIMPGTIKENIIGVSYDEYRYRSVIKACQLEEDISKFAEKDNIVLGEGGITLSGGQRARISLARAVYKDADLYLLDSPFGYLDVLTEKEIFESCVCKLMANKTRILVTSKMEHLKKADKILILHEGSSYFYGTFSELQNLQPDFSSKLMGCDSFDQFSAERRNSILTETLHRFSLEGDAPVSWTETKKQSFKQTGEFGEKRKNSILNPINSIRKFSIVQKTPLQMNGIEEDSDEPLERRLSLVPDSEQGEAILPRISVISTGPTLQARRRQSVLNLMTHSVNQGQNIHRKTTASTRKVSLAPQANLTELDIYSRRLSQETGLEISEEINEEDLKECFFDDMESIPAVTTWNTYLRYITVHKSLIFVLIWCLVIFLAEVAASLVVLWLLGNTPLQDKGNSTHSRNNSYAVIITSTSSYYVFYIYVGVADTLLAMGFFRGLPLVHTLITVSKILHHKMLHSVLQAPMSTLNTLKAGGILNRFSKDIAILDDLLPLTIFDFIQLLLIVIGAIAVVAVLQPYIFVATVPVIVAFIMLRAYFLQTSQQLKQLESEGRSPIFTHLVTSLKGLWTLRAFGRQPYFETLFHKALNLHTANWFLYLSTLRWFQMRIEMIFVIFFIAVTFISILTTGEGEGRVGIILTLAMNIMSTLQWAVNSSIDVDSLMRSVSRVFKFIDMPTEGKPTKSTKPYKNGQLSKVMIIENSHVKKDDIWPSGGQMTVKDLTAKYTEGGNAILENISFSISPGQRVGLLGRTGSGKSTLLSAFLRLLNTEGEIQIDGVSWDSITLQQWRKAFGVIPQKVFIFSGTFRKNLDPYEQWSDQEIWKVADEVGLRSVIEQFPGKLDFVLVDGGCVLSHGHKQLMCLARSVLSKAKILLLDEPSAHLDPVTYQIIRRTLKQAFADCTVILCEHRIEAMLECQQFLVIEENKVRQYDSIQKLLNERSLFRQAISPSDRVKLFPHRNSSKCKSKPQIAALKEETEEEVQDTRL

Structure (SMILES)	CLint scaled at 1 μM [1, 6] [mL/min/kg]	CLint scaled at 1 μM [2] [mL/min/kg]	CLint scaled at 1 μM [3] [mL/min/kg]	Emax [4] [%]	pEC50 [4]	CLint scaled at 1 μM ([1]; rat hepatocytes) [mL/min/kg]	CLint scaled at 1 μM [5] [mL/min/kg]
COc1ccc(-c2cc(C(=O)O)nc3c2c(C)nn3-c2ccc(C)cc2)cc1 [Compound 6]	263	182	< 59.8	64	5.38		
COc1ccc(-c2cc(C(=O)O)nc3c2c(C)nn3-c2ccccc2)cc1 [Compound 7]	305	180	173	95	5.61		
Cc1nn(-c2ccccc2)c2nc(C(=O)O)cc(-c3ccc(N4CCOCC4)cc3)c12 [Compound 8]		< 43.3	< 28.3			66.7	< 45.7
